Results taken from patent publication US10314877B2, “Method for lymph drainage” (ABOCA S.P.A. SOCIETÀ AGRICOLA, priority 2015, dated 2019).

Legend:
[1] = tested on: occludin and ZO-1 in confluent HDLEC and HDBEC cells; assay: Immunofluorescence analysis of tight junction proteins occludin and ZO-1; assay type: cell-based, human; conditions: IL-1beta alone 10 ng/ml, 1 hour
Protocol: FIG. 11 reports the data of immunofluorescence analyses of occludin (upper boxes) and of the protein ZO-1 (lower boxes) in confluent HDLEC (A) and HDBEC (B) cells treated with the following stimuli: no stimulus, IL-1beta alone (10 ng/ml, 1 hour), mixture of the invention alone (10 micrograms/ml 18 hours); mixture of the invention (18 hours)+IL-1beta (1 hour). The confocal images were taken with 60× enlargement, the scale bar=10 micrometers.
Occludin and ZO-1 were assessed as markers representative of tight endothelial junctions. The confluent cells express these markers, whereas they are reduced following treatment with IL-1beta.
The proteins of occluding tight junction and zona occludens 1 (ZO-1) expressed on the cell surface were visualised using confocal analysis. The cells were plated 5×10^4 on 1 cm circular glass slides. After 24 hours the cells were washed and treated with the mentioned stimulants. The immunofluorescence analysis was carried out as reported in the materials and methods of Monti et al, Pharmacol Res 2013; 76:171-81.

[2] = tested on: Human Dermal Lymphatic Endothelial Cells (HDLEC); assay: Vascular (endothelial) permeability test, FITC-dextran passage through lymphatic endothelial monolayer; assay type: cell-based; conditions: IL-1β 10 ng/ml 1 h, no extract
Protocol: In box A of FIG. 1 what is shown is the model in which lymphatic or hematic endothelial cells are measured in culture on a semi-permeable membrane, with presence of culture medium above and below said membrane, so as to allow the passage of components present in the medium when the cells are not strictly linked to one another, and FITCH-dextran molecules are inserted in the culture medium above the cells.
Quantification by means of fluorescence of the FITC-dextran complex provides a measure of the permeability of the endothelium. […]
The authors have therefore used a model, shown schematically in FIG. 1, to study the effects of various plant extracts on endothelia of blood or lymphatic vessels. […] The degree of permeability has been determined by way of experiment by measuring the amount of fluorescent probe that crosses the endothelial barrier separating the two compartments representing, respectively, the lumen of the vessel (above the semi-permeable membrane) and the interstice (below the semi-permeable membrane). […]
The samples were assessed in 2-3 concentrations vs. vehicle alone on the cell cultures, untreated and treated with IL1beta (10 ng/ml), to understand if they have any effect in themselves on undamaged cells and if the tested substances are able to reverse the rise in permeability induced by IL1beta. […]

## IL-1β: interleukin beta, inflammatory agent used to raise endothelial permeability
[1]
  tight junction markers occludin and ZO-1: reduced
[2]
  permeability of endothelial cells treated with IL-1β alone (healthy cells = 100%): approximately 160%
